Measured values reported in patent US20070207201A1, “Liquid and Semi-Solid Pharmaceutical Formulations and Processes” (Wyeth, priority 2006, published 2007).

Columns and labels:
Assay type in all cases: physicochemical
[1] = Stability studies of the two crystal forms (crystal form by XRPD/TGA)
[2] = Chemical stability of the crystal forms on storage (HPLC); conditions: non-micronized, 40° C./75% RH (monohydrate also 40° C. without humidity control), three months
Description: (§1) Non-micronized samples of monohydrate and anhydrate were stored at 40° C./75% RH for three months. The monohydrate was also stored at 40° C. without humidity control. During the three months, the samples were checked after two weeks, one month, two months, and three months.

[3] = Dynamic vapor sorption (hygroscopicity) of the two crystal forms; conditions: for DVS weight gain: 0–90% RH
Source text: Dynamic Vapor Sorption (Allentown, Pa.) was used to measure the hygroscopicity of the anhydrate and monohydrate of the invention (see FIGS. 6 and 7). The step conditions were three hours each at 0%, 30%, 52.5%, 75% and 90% RH, two full cycles.

[4] = Water solubility of the two crystal forms; conditions: for solubility: water, thermodynamic from solid
[5] = Stability studies of the two crystal forms (crystal form by XRPD/TGA); conditions: for Long term stability of crystal form (XRPD and TGA): non-micronized, three months
Description: Samples of monohydrate were stored at room temperature, 56° C., and 70° C. for one week. At room temperature, humidity was maintained at 0% RH. Humidity was not controlled for the higher temperatures.
The samples were analyzed by XRPD and TGA.
as §1

With `C=Cc1cc(O)cc2nc(-c3ccc(O)c(F)c3)oc12` [Monohydrate, 2-(3-fluoro-4-hydroxyphenyl)-7-vinyl-1,3-benzoxazol-5-ol] the “Short term stability of crystal form (XRPD)” value (“Short term stability” below) ([1]; 70° C. for one hour) was “stable”, the “Short term stability” value ([1]; 90° C. after one half hour) was “partially dehydrated” and the “Short term stability” value ([1]; 90° C. after one hour) was “completely dehydrated”. The “Long term chemical stability (HPLC)” value [2] was “chemically stable”, the “Hygroscopicity (from DVS data)” value [3] was “largely non-hygroscopic” and the DVS weight gain [3] was 0.1% gain (0–90% RH). For the same compound, the “Water solubility compared between the two forms” value [4] was “significantly lower solubility than the anhydrate”, the solubility ([4]; pH 7.11, water) was 2.34 µg/mL and the solubility ([4]; pH 7.51, water) was 2.21 µg/mL. For the same compound, the “Medium term stability of crystal form (XRPD and TGA)” value (from here on “Medium term stability”) ([5]; 56° C., humidity not controlled, one week) was “no obvious dehydration”, the “Medium term stability” value ([5]; 70° C., humidity not controlled, after 1 day) was “no obvious hydration” and the “Medium term stability” value ([5]; 70° C., humidity not controlled, after 4 days) was “partially dehydrated”. For the same compound, the “Medium term stability” value ([5]; 70° C., humidity not controlled, after 7 days) was “mostly dehydrated”, the “Long term stability of crystal form (XRPD and TGA)” value ([5]; 40° C. without humidity control) was “did not transform” and the “Long term stability of crystal form (XRPD and TGA)” value ([5]; 40° C./75% RH) was “did not transform”. The “Medium term stability” value ([5]; room temperature, 0% RH, one week) was “no obvious dehydration”.
With `C=Cc1cc(O)cc2nc(-c3ccc(O)c(F)c3)oc12` [Anhydrate, 2-(3-fluoro-4-hydroxyphenyl)-7-vinyl-1,3-benzoxazol-5-ol] the “Long term stability of crystal form (XRPD)” value (“Long term stability … (XRPD)” below) ([1]; micronized, 25° C./60% RH, three months) was “did not transform to the monohydrate”, the “Long term stability … (XRPD)” value ([1]; micronized, 40° C./75% RH, after one month) was “partially transform to the monohydrate” and the “Long term stability … (XRPD)” value ([1]; non-micronized, 40° C./75% RH, separate study) was “did not show any obvious transformation”. For the same compound, the “Long term chemical stability (HPLC)” value [2] was “chemically stable”, the “Hygroscopicity (from DVS data)” value [3] was “largely non-hygroscopic” and the DVS weight gain [3] was 0.2% gain (0–90%. For the same compound, the solubility ([4]; pH 7.29, water) was 10 µg/mL, the solubility ([4]; pH 7.7, water, pH 7.70) was 12.8 µg/mL and the “Long term stability of crystal form (XRPD and TGA)” value ([5]; 40° C./75% RH) was “did not transform”.
